Results on one molecule are retold here after US11497776B2, “Combination therapy for a stable and long term engraftment” (Yeda Research and Development Co. Ltd., priority 2011, dated 2022).

Experiment [1] relates to allogeneic recipients (C3H/Hen) transplanted with Balb/c-Nude BM cells. As for the experimental part: (§1) Low (5×10^6) and high dose (25×10^6) Balb/c-Nude BM cells (providing a source of BM depleted of T cells) were transplanted into allogeneic recipients (C3H/Hen) on day 0 following in-vivo T cell debulking (TCD) with anti-CD4 (clone GK1.5) and anti-CD8 (clone 53.6.72) antibodies (300 μg each; Bio X Cell, NH, USA) delivered on day −6, and exposure to 2.0 Gy total body irradiation (TBI) on day −1. High dose Cyclophosphamide (CY, 100 mg/kg, Baxter Oncology, Germany) was administered on days +3 and +4 post transplant and donor type chimerism was evaluated 35 and 95 days post transplant using fluorescein anti-host and donor H-2 antibodies (e.g. FlTC labeled anti-H-2D^d antibody specific for donor type cells and PE labeled anti-H-2K^k antibody specific for host type cells).
Recipient mice (C3H/Hen) were treated with a conditioning protocol prior to transplantation of a T cell depleted bone marrow transplant. Specifically, mice were in-vivo treated with T cell debulking (TCD) using anti-CD4 and anti-CD8 antibodies delivered on day −6 and by exposure to 2.0 Gy total body irradiation (TBI) on day −1. Next, low (5×10^6) or high dose (25×10^6) Balb/c-Nude BM cells (providing a source of BM depleted of T cells, as Nude mice have miniscule numbers of mature T cells) were transplanted into allogeneic recipients (C3H/Hen) on day 0. High dose cyclophosphamide (CY, 100 mg/kg) was administered on days +3 and +4 post transplant. Evaluation of bone marrow cell engraftment was evaluated by donor type chimerism at 35 and 95 days post transplant.
as §1, with “High” for “Low (5×10^6) and high”, “different doses of irradiation ranging from 1 to 3.5” for “2.0”, “TBI” for “total body irradiation (TBI)”, “30” for “35 and 95”
High dose Cyclophosphamide (CY) was administered on days +3 and +4 post transplant and donor type chimerism was evaluated at 30 days post transplant.
as §1, with “High dose” for “Low (5×10^6) and high dose”, “−1. Different doses of” for “−1. High dose”, “mg/kg, 125 mg/kg or 150 mg/kg,” for “mg/kg,”, “Germany) were” for “Germany) was”, “evaluated 30” for “evaluated 35 and 95”

Experiment [2] deals with C3H/Hen recipients of T cell depleted BM and high dose CY. Here is the method: Donor (Balb/c) and 3rd party (C57BL/6) skin grafts were transplanted to the mixed chimeric recipients as described above [i.e. to those mice which were previously transplanted with mega dose (25×10^6) T cell depleted BM and were treated with high dose CY] and to the recipient mice that were inoculated with a regular (5×10^6) T cell depleted BM cell dose and were treated with high dose CY.
Tolerance induction was measured by transplantation of donor (Balb/c) and 3rd party (C57BL/6) skin grafts to the mixed chimeric recipients that were transplanted with mega dose (25×10^6) T cell depleted BM and were treated with high dose CY (as described above), in comparison to the recipients that were inoculated with a regular (5×10^6) T cell depleted BM cell dose (as described above).

[3] abbreviates: 1.0 Gy TBI, 25×10^6 BM, CY 100 mg/kg days +3 and +4, 30 days post transplant.
The mark [4] stands for this setting: 2 Gy TBI, 25×10^6 BM, CY 100 mg/kg days +3 and +4, 30 days post transplant.
Where [5] appears, read: 2.5, 3 or 3.5 Gy TBI, 25×10^6 BM, CY 100 mg/kg days +3 and +4, 30 days post transplant.

Read-outs that look alike come from different tables or passages of the source.

Take `O.O=P1(N(CCCl)CCCl)NCCCO1` (stereo not drawn) [CY, 2-[bis(2-chloroethyl)amino]tetrahydro-2H-1,3,2-oxazaphosphorine 2-oxide monohydrate]: the “effect of increasing CY dose on chimerism” value in experiment [1] (125 mg/kg or 150 mg/kg versus 100 mg/kg, 25×10^6 BM, 2 Gy TBI, 30 days post transplant) was “did not provide a significant enhancement of chimerism”. The “donor type chimerism range” value in experiment [1] (setting [3]) is reported as 14.5-58%; in experiment [1] (setting [4]), 56-85%; in experiment [1] (setting [5]) it was 58-83%. Moreover, the “percentage of chimeric mice” value in experiment [1] (setting [3]) came out at 83%. The “percentage of mice exhibiting donor type chimerism” value in experiment [1] (setting [4]) is recorded as 87%. In experiment [1] (setting [5]), the chimeric recipient mice is recorded as 6/6. For the same molecule, the “mixed chimerism at long term follow-up” value in experiment [1] (5×10^6 T cell depleted BM + CY, 180 and 225 days post transplant) was “did not exhibit mixed chimerism”. Further, the “effect of CD8+ cell depletion of the BM preparation on level of chimerism” value in experiment [1] (25×10^6 CD8 depleted vs non-depleted Balb/c-Nude BM, CY 100 mg/kg days +3 and +4, 2.0 Gy TBI, 30 days post transplant) is “did not have any adverse impact”. Also, the “chimerism at long term follow-up” value in experiment [1] (25×10^6 T cell depleted BM + high dose CY, 180 and 225 days post transplant) is “stable and durable”. The “mice in which durable mix chimerism was achieved” value in experiment [1] (25×10^6 T cell depleted BM, CY 100 mg/kg days +3 and +4, TCD day −6, 2.0 Gy TBI day −1, day 35 and day 95) is 4 out of 7. In addition, the “average donor type chimerism” value in experiment [1] (CY 100 mg/kg days +3 and +4, 25×10^6 BM, 2 Gy TBI, 30 days post transplant) is 57.5±25.8; in experiment [1] (CY 125 mg/kg days +3 and +4, 25×10^6 BM, 2 Gy TBI, 30 days post transplant) it was 66.5±20.6; in experiment [1] (CY 150 mg/kg days +3 and +4, 25×10^6 BM, 2 Gy TBI, 30 days post transplant), 67.4±27.4. Moreover, the “mice expressing donor type chimerism” value in experiment [1] (control mice: TCD, 2 Gy TBI and optionally CY, no BM, day 35 and day 95) is listed as “none”; in experiment [1] (regular dose 5×10^6 T cell depleted BM, in the presence or absence of cyclophosphamide, TCD, 2 Gy TBI, day 35 and day 95), “none”. Also, the skin graft outcome in experiment [2] (5×10^6 T cell depleted BM cells and CY) was “rejected both the donor and 3rd party skin grafts”. Besides, in experiment [2] (25×10^6 T cell depleted BM + high dose CY days +3 and +4), the “chimeric mice that accepted the donor graft and rejected the 3rd party skin grafts” value is on record as “three out of 4”.
